Test results: patent US20240174622A1, “COMPOUND AND RADIOACTIVE LABELING COMPOUND” (NIHON MEDI-PHYSICS CO., LTD., priority 2021, published 2024)

How the values were obtained:
[1] = system: LNCaP tumor-transplanted mouse; test: Internal radioactivity distribution using LNCaP tumor-transplanted mouse; format: in vivo
Procedure: (§1) The animal test was performed in compliance with the guidelines of Kyoto University Animal Experiment Committee. Male CB17/IcrJcl-Prkdc^scid mice were purchased from CLEA Japan, Inc. The animals were kept under 12 h/12 h, day/night cycle conditions and fed ad libitum with food and water. LNCaP cells (1.0×10^7 cells/mouse) or PC-3 cells (1.0×10^7 cells/mouse) were suspended in a mixture of PBS and Matrigel manufactured by Corning Life Sciences (1:1, 150 μL) and the suspension was subcutaneously transplanted to the right shoulder of mice under isoflurane anesthesia. Thereafter, the mice were kept for 40 to 60 days.
LNCaP or PC-3 tumor-implanted mice were administered saline solutions (185 kBq, 100 μL) of [^111In]In-PSMA-DA1 or [^111In]In-PSMA-DB from the tail vein (n=3 each). Mice were euthanized 1, 4, 24, 48, 96, and 192 hours after administration. Thereafter, blood and each organ were recovered, and the mass and radioactivity of the organs were measured.
The percentage (% ID) of the radioactivity amount to the administered radioactivity amount (injected dose) is shown as the value (% ID/g) divided by the blood mass or the organ mass (g).
LNCaP tumor-implanted mice prepared by the same method as in Example 1-1 were administered a saline solution (241 kBq/100 μL) of [^111In]In-PtDA from the tail vein (n=3). Mice were euthanized 1, 24, and 48 hours after administration. Thereafter, blood and each organ were recovered, and the mass and radioactivity of the organs were measured.
LNCaP tumor-implanted mice prepared by the same method as in Example 1-1 were administered a saline solution (259 kBq/100 μL each) of each of the radiolabeled compounds in Examples 3-1 to 3-3 or Comparative Examples 2-1 to 2-2 from the tail vein (n=2 to 3). Mice were euthanized 1, 4, 24, 48, 96, and 192 hours after administration. Thereafter, blood and each organ were recovered, and the mass and radioactivity of the organs were measured.
as §1, with “LNCaP cells (4.3×10^6 cells/mouse) or” for “LNCaP cells (1.0×10^7 cells/mouse) or”, “PC-3 cells (3.3×10^6 cells/mouse) were” for “PC-3 cells (1.0×10^7 cells/mouse) were”, “shoulder of CB17/IcrJcl-Prkdc^scid mice under” for “shoulder of mice under”
Mice were euthanized 1, 4, 24, 48, 96, and 192 hours after administration. Thereafter, blood and each organ were recovered, and the mass and radioactivity of the organs were measured.
The results are shown in Table 12 (Mean value±standard deviation, n=3).

[2] = biological target: human serum albumin (HSA) (Homo sapiens, UniProt P02768); test: Evaluation of binding to albumin (HSA solution, PBS control); conditions: left to stand in HSA solution (45 mg/mL)
human serum albumin (HSA), sequence (P02768 25-609): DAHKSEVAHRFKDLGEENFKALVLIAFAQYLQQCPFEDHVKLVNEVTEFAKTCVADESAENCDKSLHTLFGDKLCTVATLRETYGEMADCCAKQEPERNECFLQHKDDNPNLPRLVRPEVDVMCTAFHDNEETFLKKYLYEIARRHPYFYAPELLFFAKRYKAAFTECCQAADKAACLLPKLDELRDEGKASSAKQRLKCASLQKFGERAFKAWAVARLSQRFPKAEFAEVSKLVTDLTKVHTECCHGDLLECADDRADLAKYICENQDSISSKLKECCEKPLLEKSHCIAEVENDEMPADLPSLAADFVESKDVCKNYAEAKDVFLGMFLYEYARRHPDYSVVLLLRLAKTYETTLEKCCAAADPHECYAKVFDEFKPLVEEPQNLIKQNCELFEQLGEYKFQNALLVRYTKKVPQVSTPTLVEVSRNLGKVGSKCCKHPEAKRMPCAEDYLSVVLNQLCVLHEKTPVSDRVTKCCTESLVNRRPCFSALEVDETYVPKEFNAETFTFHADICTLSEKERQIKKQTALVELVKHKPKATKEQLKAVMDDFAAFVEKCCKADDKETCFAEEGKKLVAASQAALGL
Procedure: Thereafter, the reaction liquids were added to a spin column (Sephadex G-100; manufactured by Cytiva), and centrifuged at 1500×g at 4° C. for 2 minutes. After separation, the radioactivity for each of the column and the eluate was measured with a gamma counter.
When a compound to be evaluated binds to albumin to form a composite, the compound passes through the column because of the increased molecular size.
As in Examples described above, PBS and human albumin were used to evaluate binding to albumin.
Thereafter, the reaction liquid was added to a spin column (Sephadex G-50; manufactured by Cytiva), and centrifuged at 1500×g at 4° C. for 2 minutes. After separation, the radioactivity of the column and the eluate was measured with a gamma counter.

O=C([O-])CN(Cc1cccc(C(=O)[O-])n1)C[C@H](Cc1ccc(NC(=O)[C@H](CCCCNC(=O)CCC(=O)NCCCC[C@H](NC(=O)N[C@@H](CCC(=O)O)C(=O)O)C(=O)O)NC(=O)COCCOCCOCC(=O)N[C@@H](CCCCNC(=O)CCCc2ccc(I)cc2)C(=O)O)cc1)N(CC(=O)[O-])Cc1cccc(C(=O)[O-])n1.[111In+3] [[^111In]In-Octapa-3]
Blood ([1]; 1 h after administration): 27.2 ± 2.92 % ID/g | Brain ([1]; 1 h after administration): 0.40 ± 0.05 % ID/g | Heart ([1]; 1 h after administration): 6.53 ± 0.66 % ID/g | Intestine ([1]; 1 h after administration): 2.60 ± 0.48 % ID/g | Kidney ([1]; 1 h after administration): 57.1 ± 17.4 % ID/g | LNCaP Tumor ([1]; 1 h after administration): 7.79 ± 1.11 % ID/g | Liver ([1]; 1 h after administration): 4.32 ± 0.40 % ID/g | Lung ([1]; 1 h after administration): 16.7 ± 1.41 % ID/g | Muscle ([1]; 1 h after administration): 1.51 ± 0.23 % ID/g | Pancreas ([1]; 1 h after administration): 2.59 ± 0.26 % ID/g | Spleen ([1]; 1 h after administration): 8.56 ± 0.95 % ID/g | Stomach (% ID) ([1]; 1 h after administration): 0.49 ± 0.04 % ID | Blood ([1]; 4 h after administration): 19.3 ± 3.84 % ID/g | Brain ([1]; 4 h after administration): 0.31 ± 0.07 % ID/g | Heart ([1]; 4 h after administration): 5.98 ± 0.93 % ID/g | Intestine ([1]; 4 h after administration): 3.23 ± 0.18 % ID/g | Kidney ([1]; 4 h after administration): 100 ± 6.33 % ID/g | LNCaP Tumor ([1]; 4 h after administration): 11.3 ± 2.39 % ID/g | Liver ([1]; 4 h after administration): 3.36 ± 0.39 % ID/g | Lung ([1]; 4 h after administration): 14.1 ± 2.06 % ID/g | Muscle ([1]; 4 h after administration): 1.26 ± 0.18 % ID/g | Pancreas ([1]; 4 h after administration): 2.17 ± 0.15 % ID/g | Spleen ([1]; 4 h after administration): 7.42 ± 0.88 % ID/g | Stomach (% ID) ([1]; 4 h after administration): 0.78 ± 0.28 % ID | Blood ([1]; 24 h after administration): 7.20 ± 0.50 % ID/g | Brain ([1]; 24 h after administration): 0.16 ± 0.01 % ID/g | Heart ([1]; 24 h after administration): 2.50 ± 0.17 % ID/g | Intestine ([1]; 24 h after administration): 1.23 ± 0.28 % ID/g | Kidney ([1]; 24 h after administration): 26.4 ± 2.50 % ID/g | LNCaP Tumor ([1]; 24 h after administration): 8.04 ± 0.38 % ID/g | Liver ([1]; 24 h after administration): 1.73 ± 0.09 % ID/g | Lung ([1]; 24 h after administration): 5.85 ± 0.39 % ID/g | Muscle ([1]; 24 h after administration): 0.61 ± 0.04 % ID/g | Pancreas ([1]; 24 h after administration): 1.24 ± 0.16 % ID/g | Spleen ([1]; 24 h after administration): 2.87 ± 0.40 % ID/g | Stomach (% ID) ([1]; 24 h after administration): 0.25 ± 0.08 % ID | Blood ([1]; 48 h after administration): 3.88 ± 1.13 % ID/g | Brain ([1]; 48 h after administration): 0.12 ± 0.02 % ID/g | Heart ([1]; 48 h after administration): 1.37 ± 0.18 % ID/g | Intestine ([1]; 48 h after administration): 0.62 ± 0.14 % ID/g | Kidney ([1]; 48 h after administration): 17.3 ± 5.57 % ID/g | LNCaP Tumor ([1]; 48 h after administration): 7.79 ± 2.72 % ID/g | Liver ([1]; 48 h after administration): 1.42 ± 0.08 % ID/g | Lung ([1]; 48 h after administration): 3.18 ± 0.68 % ID/g | Muscle ([1]; 48 h after administration): 0.26 ± 0.05 % ID/g | Pancreas ([1]; 48 h after administration): 0.60 ± 0.13 % ID/g | Spleen ([1]; 48 h after administration): 1.76 ± 0.39 % ID/g | Stomach (% ID) ([1]; 48 h after administration): 0.13 ± 0.04 % ID | Blood ([1]; 96 h after administration): 0.63 ± 0.32 % ID/g | Brain ([1]; 96 h after administration): 0.07 ± 0.02 % ID/g | Heart ([1]; 96 h after administration): 0.43 ± 0.17 % ID/g | Intestine ([1]; 96 h after administration): 0.29 ± 0.09 % ID/g | Kidney ([1]; 96 h after administration): 4.33 ± 2.06 % ID/g | LNCaP Tumor ([1]; 96 h after administration): 4.17 ± 0.80 % ID/g | Liver ([1]; 96 h after administration): 0.70 ± 0.25 % ID/g | Lung ([1]; 96 h after administration): 0.78 ± 0.29 % ID/g | Muscle ([1]; 96 h after administration): 0.08 ± 0.03 % ID/g | Pancreas ([1]; 96 h after administration): 0.22 ± 0.06 % ID/g | Spleen ([1]; 96 h after administration): 0.88 ± 0.32 % ID/g | Stomach (% ID) ([1]; 96 h after administration): 0.06 ± 0.03 % ID | Blood ([1]; 192 h after administration): 0.03 ± 0.00 % ID/g | Brain ([1]; 192 h after administration): 0.02 ± 0.01 % ID/g | Heart ([1]; 192 h after administration): 0.12 ± 0.02 % ID/g | Intestine ([1]; 192 h after administration): 0.05 ± 0.01 % ID/g | Kidney ([1]; 192 h after administration): 0.27 ± 0.02 % ID/g | LNCaP Tumor ([1]; 192 h after administration): 1.31 ± 0.49 % ID/g | Liver ([1]; 192 h after administration): 0.35 ± 0.04 % ID/g | Lung ([1]; 192 h after administration): 0.12 ± 0.04 % ID/g | Muscle ([1]; 192 h after administration): 0.01 ± 0.02 % ID/g | Pancreas ([1]; 192 h after administration): 0.07 ± 0.01 % ID/g | Spleen ([1]; 192 h after administration): 0.31 ± 0.11 % ID/g | Stomach (% ID) ([1]; 192 h after administration): 0.01 ± 0.00 % ID | radioactivity in the eluate (in words) [2]: significantly higher
